Experimental data published in patent US20250032530A1, “USE OF AURANOFIN AS AN INHIBITOR OF ATYPICAL PROTEIN KINASE C FOR TREATMENT OF NEURODEGENERATIVE DISORDERS” (UNIVERSITY OF SOUTH FLORIDA, priority 2021, published 2025).
Read-outs that look alike come from different tables or passages of the source. Each block holds one molecule with its values, some of them ahead of it.

Assays:
aPKC = conditions: cited from earlier work
[1] = system: aPKC, Akt2, AMP-activated kinase (AMPK), FoxO1; conditions: isolated human hepatocytes; cited from earlier work
BACE1 = BACE1 levels in LA1-5s neuronal cells treated with insulin; type: cell-based, human
Procedure: Values of BACE1 are Mean±SEM of 4 values. Asterisks indicate P<0.05 for comparison of designated group versus the untreated control group (ANOVA).
(§1) LA1-5s neuronal cells were originally obtained from non-catecholamine-producing neuroblastoma of a person and are commercially available from the European Collection of Authenticated Cell Cultures. Incubation conditions were as described.
(§2) As described, western analyses were conducted with rabbit antisera, using: anti-aPKC [recognizes a C-terminal sequence in all aPKCs (Santa Cruz Biotechnologies, Santa Cruz, CA, USA)]; anti-phospho-threonine (thr)-560/555-PKC-ζ/λ/ι [recognizes a phosphopeptide sequence present in all aPKCs and indicates activation (Invitrogen, Carlsbad, CA, USA)]; anti-phospho-serine (ser)-473-Akt [recognizes a phosphopeptide sequence at 60 kDa present in all Akt's-1/2/3 and indicates activation (Cell Signaling Technologies, Danvers, MA, USA)]; anti-4 kDa-AP1-40/42 (Cell Signaling Technologies, Danvers, MA, USA); anti-mouse-70 kDa-BACE1 and anti-human-70 kDa-BACE1 (ThermoFisher); and anti-phospho-threonine (thr)-231-tau (Gene Tex, Irvine, CA, USA). Samples from all experimental groups within each study were compared on the same blots and routinely checked with loading controls. All comparisons in histograms were made relative to the mean value of the basal control group, i.e., wild-type mice consuming standard low-fat mouse chow, untreated with insulin or aPKC inhibitors, and having normal levels of aPKCs and other cellular proteins.

Akt = experiment: Insulin-induced Akt activation in LA1-5s neuronal cells; type: cell-based, human; conditions: 200 nM insulin, 24 hours
Excerpt: (§3) Cell lysates were subjected to Western analyses for phosphorylated/activated forms of aPKC, NFκB and Akt. Representative blots of indicated proteins are shown in upper bands. […] Bargrams show Mean±SEM of 3-4 determinations. Asterisks indicate P<0.05; comparison of designated group versus the uninhibited, insulin-treated group (ANOVA).
as §1
as §2, with “Samples from all experimental groups within each study were compared on the same blots and routinely checked with loading controls. All comparisons in histograms were made relative to the mean value of the basal control group, i.e., wild-type mice consuming standard low-fat mouse chow, untreated with insulin or aPKC inhibitors, and having normal levels of aPKCs and other cellular proteins.” left out

recombinant PKC-ζ = target: T1, recombinant PKC-ζ (Homo sapiens, UniProt Q05513); conditions: cited from earlier work
T1 sequence (Q05513 1-592): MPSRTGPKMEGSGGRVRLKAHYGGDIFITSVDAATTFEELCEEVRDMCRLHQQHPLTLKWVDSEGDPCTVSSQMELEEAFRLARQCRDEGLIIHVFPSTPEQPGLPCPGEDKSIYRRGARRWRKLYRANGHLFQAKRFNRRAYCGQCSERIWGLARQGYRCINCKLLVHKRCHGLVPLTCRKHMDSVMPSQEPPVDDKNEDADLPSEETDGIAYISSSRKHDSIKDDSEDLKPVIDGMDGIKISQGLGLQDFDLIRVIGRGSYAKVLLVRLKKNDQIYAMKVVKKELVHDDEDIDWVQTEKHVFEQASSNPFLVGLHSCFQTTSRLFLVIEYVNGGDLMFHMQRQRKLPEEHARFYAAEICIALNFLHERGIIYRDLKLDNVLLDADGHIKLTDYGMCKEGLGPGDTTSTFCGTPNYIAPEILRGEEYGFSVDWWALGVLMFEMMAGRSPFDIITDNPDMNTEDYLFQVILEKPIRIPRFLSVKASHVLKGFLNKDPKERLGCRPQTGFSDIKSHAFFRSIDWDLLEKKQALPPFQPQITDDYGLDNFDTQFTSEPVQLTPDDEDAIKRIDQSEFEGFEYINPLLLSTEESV

[2] = system: PKC-λ/ι activity, BACE1 activity, Aβ1-40/42; conditions: LA1-5s neuronal cells, previously reported; cited from earlier work
[3] = system: recombinant forms of PKC-α, PKC-β, PKC-δ, PKCε, or PKC-θ; conditions: cited from earlier work
NFκB = experiment: Insulin-induced NFκB activity in LA1-5s neuronal cells; type: cell-based, human; conditions: 200 nM insulin, 24 hours; 1 μM ACPD, increasing concentrations of auranofin
Excerpt: as §3, §1
as §2, with “Samples from all experimental groups within each study were compared on the same blots and routinely checked with loading controls. All comparisons in histograms were made relative to the mean value of the basal control group, i.e., wild-type mice consuming standard low-fat mouse chow, untreated with insulin or aPKC inhibitors, and having normal levels of aPKCs and other cellular proteins.” left out

recombinant PKC-ι/λ [4] = target: T2, recombinant PKC-ι/λ (Homo sapiens, UniProt P41743); experiment: Inhibition of recombinant PKC-ι/λ; type: biochemical; conditions: Example 2
T2 sequence (P41743 1-596): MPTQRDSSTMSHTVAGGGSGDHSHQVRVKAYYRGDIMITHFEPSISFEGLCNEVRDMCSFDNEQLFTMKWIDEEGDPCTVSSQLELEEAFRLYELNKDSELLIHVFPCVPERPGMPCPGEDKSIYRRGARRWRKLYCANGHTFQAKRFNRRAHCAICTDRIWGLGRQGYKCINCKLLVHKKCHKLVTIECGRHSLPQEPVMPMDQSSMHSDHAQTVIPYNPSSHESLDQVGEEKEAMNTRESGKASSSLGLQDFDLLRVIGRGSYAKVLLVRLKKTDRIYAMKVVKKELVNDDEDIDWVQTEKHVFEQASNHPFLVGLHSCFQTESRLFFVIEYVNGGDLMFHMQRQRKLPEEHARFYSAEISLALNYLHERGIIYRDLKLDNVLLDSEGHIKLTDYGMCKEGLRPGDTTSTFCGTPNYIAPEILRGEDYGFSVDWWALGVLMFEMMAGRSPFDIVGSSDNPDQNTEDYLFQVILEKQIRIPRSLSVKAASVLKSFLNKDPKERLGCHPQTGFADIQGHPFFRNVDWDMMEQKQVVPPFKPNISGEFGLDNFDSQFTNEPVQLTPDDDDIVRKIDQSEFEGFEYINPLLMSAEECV
Procedure: 1H-imidazole-4-carboxamide,-5-amino-1-[2,3-dihydroxy-4-[(hydroxyl)methyl]cyclopentyl-[1R-(1a,2b,3b,4a)] […] (ICAPP).
aPKC Inhibitors. We identified by HTS compounds that target the substrate-binding site of aPKCs and potently (IC50s10-30 nM) inhibit recombinant PIP3-dependent aPKCs, but not DAG-dependent PKCs. Three compounds have been studied in detail: (a) 1H-imidazole-4-carboxamide, 5-amino-1-[2,3-dihydroxy-4-[(phosphono-oxy)methyl]cyclopentyl-[1R-(1a,2b,3b,4a)] […] Thus, these agents can reduce brain aPKC activity, indirectly at lower doses by inhibiting liver aPKC and correcting hyperinsulinemia in insulin-resistant states, and, at higher doses, by acting directly on brain PKC-λ/ι.

recombinant PKC-ι/λ [5] = target: T2, recombinant PKC-ι/λ; conditions: cited from earlier work
PKCι and PKCζ = conditions: cited from earlier work

- IC50 (recombinant PKC-ι/λ [4]): 1 to 10 nM
SMILES: NC(=O)c1ncn([C@@H]2C[C@H](COP(=O)(O)O)[C@@H](O)[C@H]2O)c1N [ICAPP]
- inhibition of brain aPKC (aPKC; at higher doses): inhibit brain aPKC
- aPKC inhibition in liver, muscle, adipose tissue (aPKC; intact mice, employed doses): inhibit aPKC in liver, but not in muscle or adipose tissue
- FoxO1 phosphorylation/inactivation [1]: increase FoxO1 phosphorylation/inactivation
- inhibition of aPKC, Akt2, AMPK [1]: inhibit aPKC but not Akt2 or AMP-activated kinase (AMPK)
- insulin-induced increase in BACE1 levels (BACE1; 200 nM insulin, 24 hours, increasing concentrations of ICAPP): diminished
- basal/resting levels of BACE1 (BACE1; at higher levels of inhibitor): reduced basal/resting levels of BACE1
- insulin-induced Akt activation (Akt): not Akt activation
- IC50 (recombinant PKC-ζ): 200 to 500 nM
- insulin-induced increases in PKC-λ/ι activity, BACE1 activity and production of Aβ1-40/42 [2]: blocked
- effect on recombinant PKC-α, PKC-β, PKC-δ, PKCε, PKC-θ [3]: no effect
- insulin-induced increase in NFκB activity (NFκB): diminished
- IC50 (recombinant PKC-ι/λ [5]): 1 to 10 nM

SMILES: O=C(O)CC([S-])C(=O)O.[Au+] (centres unmarked) [aurothiomalate]
- insulin activation of aPKC (PB1 site) (PKCι and PKCζ): inhibit insulin activation of aPKC
